Assay results taken from patent US20230317203A1, “SCREENING METHOD” (University of Leeds, priority 2022, published 2023).
Where two headings read alike, the source gives them in different places. One block for each molecule: values may come before it.

What was measured:
[1] = target: T1, BRISC (Homo sapiens, UniProt P46736+Q15018+Q9NXR7); assay: IQF K63-linked diUb DUB activity assay, BRISC; format: biochemical; parameters: made in house; host or cells: Spodoptera frugiperda (Sf9) insect cells; conditions: for inhibition of BRISC DUB activity: IQF assay, BRISC 1 nM
Method: (§1) BRISC complexes were tested for activity in DUB reaction buffer containing 50 mM HEPES-NaOH pH 7.0, 100 mM NaCl, 0.1 mg/mL BSA, 1 mM DTT, and 0.003% Brij-35. […] Inhibitors were assayed at concentrations up to 200 μM. 20 μL enzyme reactions were carried out in 384-well black flat-bottom low flange plates (Corning; 35373). DUB activity was measured using internally quenched fluorescent (IQF) K63-linked diUb (Lifesensors, catalogue number: DU6303) at 50 or 100 nM. Cleaved diUb was monitored by measuring fluorescence intensity (Ex. 540 nm, Em. 580 nm; dichroic mirror 560 nm). Fluorescence intensity was measured every minute for 30 minutes at 30° C. Fluorescence intensity units for the first 10 minutes were plotted against time to generate a linear reaction progress curve, where the initial velocity (v0) corresponds to the gradient of the curve. IC50 values were calculated using the GraphPad Prism (v8.0) built-in dose-response equation for inhibitor concentration vs. response (variable slope).
(§2) A high throughput biochemical screen was designed to identify inhibitors of BRISC, based on the ability of small molecules to inhibit BRISC cleavage of a K63-linked di-ubiquitin substrate. The di-ubiquitin substrate is designed with a fluorescent TAMRA dye on the proximal ubiquitin moiety and fluorescence quencher on the distal ubiquitin molecule (FIG. 1A). Upon isopeptidase bond cleavage, fluorescence is detected, enabling continuous fluorescent readout of deubiquitylase activity over time (FIG. 1A). The assay conditions were optimised and used to test an in-house compound library comprising of ˜300 published and custom-made kinase inhibitors. From this screen, two hits were identified, compounds AT7519 (well H20) and YM201636 (well P12) (FIG. 1B). The specificity of these compounds was assessed against the broad-spectrum DUB ubiquitin-specific protease-2 (USP2) and the serine protease trypsin which cleave K63-Ub substrate under the same conditions. […] UV-Vis spectroscopy analyses of the compound in well H20 used in the screen compared to the Synkinase and Sellechem AT7519 compounds identified an additional peak in the H20 spectra (FIG. 5C). […] The synthesis of the two isomers was confirmed using mass spectrometry fragmentation analyses (FIG. 5E) and the inhibitory effect of the isomers was tested against BRISC.

[2] = target: T1, BRISC; assay: Mass photometry of BRISC oligomeric state; format: binding; conditions: purified BRISC mixed with inhibitor, FIG. 2B
Method: (§3) Microscope coverslips were prepared as previously described^33. All mass photometry experiments were performed using a One^MP mass photometer (Refeyn Ltd, Oxford, UK). For preliminary BRISC-inhibitor measurements, 1 μM BRISC(FL) was mixed with either DMSO or inhibitor at 330 μM and incubated for 15 minutes on ice. Prior to MP measurement, the BRISC-inhibitor mix was diluted in gel filtration buffer (25 mM HEPES, 150 mM NaCl, 1 mM TCEP) for a final concentration of BRISC at 10 nM (0.05% DMSO). 12 μL of this dilution was used for the final MP measurement, following autofocus stabilisation. […] The BRISC-inhibitor mix was used directly for MP measurement using buffer-free autofocus stabilisation. Movies were recorded for 60 seconds using AcquireMP (Refeyn, UK), and were processed using DiscoverMP (Refeyn, UK). Mass photometry image processing has been previously described^33. Briefly, contrast-to-mass (C2M) calibration was performed using protein standards (66-669 kDa) diluted in gel filtration buffer. […] The mass distribution from each run is in a histogram, where count refers to each landing event and a Gaussian sum is fitted to the data. The relative amount of each species is calculated as the area of each Gaussian, where a refers to the standard deviation of the fitted Gaussian. […] Curves were fitted and EC50 values were calculated using the GraphPad Prism (v8.0) built-in dose-response equation for concentration of agonist vs. response (variable slope).

[3] = test system: BRISC; assay: Mass photometry of BRISC oligomeric state; format: binding, human; conditions: mass photometry
Method: as §3

[4] = target: ARISC (Homo sapiens, UniProt P46736+Q6UWZ7+Q9NXR7); assay: IQF assay with ARISC; format: biochemical; conditions: FIG. 1E
Excerpt: (§4) FIGS. 1A-1F show the development a high-throughput screen to identify first-in-class DUB inhibitors. FIG. 1A depicts a diagram of a TAMRA-linked IQF di-ubiquitin substrate (left) and BRISC DUB activity against a fluorescent K63-linked substrate (right).

[5] = target: ARISC-RAP80 (Homo sapiens, UniProt P46736+Q6UWZ7+Q9NXR7); assay: IQF assay with ARISC-RAP80; format: biochemical; conditions: FIG. 1E
Excerpt: as §4

[6] = target: T2, BRISC(FL) (Homo sapiens, UniProt P46736+Q15018+Q9NXR7); assay: Native mass spectrometry of BRISC with inhibitor; format: binding; conditions: 10 μM BRISC(FL), 1 mM inhibitor
T2 construct: The four-subunit human BRISC (full-length (FL) and MERIT40ΔN, Abraxas2ΔC) complex was cloned; made in house; host or cells: Spodoptera frugiperda (Sf9) insect cells
Method: Samples were buffer exchanged into 500 mM ammonium acetate using Zeba Spin 7K MWCO desalting columns (ThermoFisher). Gold and palladium coated nanospray tips were prepared in-house and mounted on the nano-electrospray ionisation source. Mass spectra were acquired on a Q Exactive Ultra-High Mass Range Hybrid Quadrupole-Orbitrap mass spectrometer (Thermo Fisher), optimised for mass resolution at high m/z ratios. Data were visualised and processed using Mass Lynx (v4.1) and UniDec (v2.7.1).

[7] = target: T3, AMSH-LP (Homo sapiens, UniProt Q96FJ0); assay: IQF assay with JAMM/MPN DUB AMSH-LP; format: biochemical; conditions: FIG. 1E
T3 sequence (Q96FJ0 1-436): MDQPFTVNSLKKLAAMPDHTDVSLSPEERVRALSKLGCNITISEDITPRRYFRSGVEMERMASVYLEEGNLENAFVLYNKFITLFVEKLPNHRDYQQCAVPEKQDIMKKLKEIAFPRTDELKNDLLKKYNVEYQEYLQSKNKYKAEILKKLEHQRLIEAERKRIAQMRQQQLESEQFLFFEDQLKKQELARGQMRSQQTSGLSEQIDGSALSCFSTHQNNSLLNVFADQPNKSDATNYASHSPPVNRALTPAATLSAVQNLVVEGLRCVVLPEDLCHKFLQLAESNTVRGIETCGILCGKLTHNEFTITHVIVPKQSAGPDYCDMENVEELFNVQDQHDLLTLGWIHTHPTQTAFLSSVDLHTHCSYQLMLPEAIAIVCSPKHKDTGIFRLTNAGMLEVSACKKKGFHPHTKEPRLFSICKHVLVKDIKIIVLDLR
Excerpt: as §4

[8] = test system: Trypsin; assay: IQF di-ubiquitin assay, trypsin specificity; format: biochemical; conditions: Trypsin 125 nM, K63-Ub substrate
Excerpt: (§5) FIGS. 5A-5E show validation of hit compounds.
as §2

[9] = target: USP2 (Homo sapiens, UniProt O75604); assay: IQF di-ubiquitin assay, USP2 specificity; format: biochemical; conditions: USP2 100 nM, K63-Ub substrate
Excerpt: as §5, §2

[10] = target: BRISC BRCC36 Trp130Ala (Homo sapiens, UniProt P46736+Q15018+Q9NXR7, W130A); assay: IQF DUB assay, BRISC mutant BRCC36 Trp130Ala; format: biochemical; conditions: FIG. 4C
Method: (§6) The four-subunit human BRISC (full-length (FL) and MERIT40ΔN, Abraxas2ΔC) complex was cloned using the MultiBac system and co-expressed in Spodoptera frugiperda (Sf9) insect cells^32. BRISC mutants were cloned into pFastBac vectors in the Bac-to-Bac system (ThermoFisher), baculoviruses generated in Sf9 cells and used for co-infection of Trichoplusia ni (Tni) cells. All BRISC complexes were purified as previously described^12,13.
as §1, with “20 μL enzyme reactions were carried out in 384-well black flat-bottom low flange plates (Corning; 35373).” left out, “slope). […]” for “slope).”

[11] = target: BRISC BRCC36 Leu169Ala (Homo sapiens, UniProt P46736+Q15018+Q9NXR7, L169A); assay: IQF DUB assay, BRISC mutant BRCC36 Leu169Ala; format: biochemical; conditions: FIG. 4C
Method: as §6
as §1, with “20 μL enzyme reactions were carried out in 384-well black flat-bottom low flange plates (Corning; 35373).” left out, “slope). […]” for “slope).”

[12] = target: BRISC Abraxas2 Thr140Ala (Homo sapiens, UniProt P46736+Q15018+Q9NXR7, T140A); assay: IQF DUB assay, BRISC mutant Abraxas2 Thr140Ala; format: biochemical; conditions: FIG. 4C
Method: as §6
as §1, with “20 μL enzyme reactions were carried out in 384-well black flat-bottom low flange plates (Corning; 35373).” left out, “slope). […]” for “slope).”

[13] = target: T1, BRISC; parameters: made in house; host or cells: Spodoptera frugiperda (Sf9) insect cells; conditions: BRISC WT, reference 13; cited from earlier work

Sequence of USP2 (O75604 whole entry, species assumed): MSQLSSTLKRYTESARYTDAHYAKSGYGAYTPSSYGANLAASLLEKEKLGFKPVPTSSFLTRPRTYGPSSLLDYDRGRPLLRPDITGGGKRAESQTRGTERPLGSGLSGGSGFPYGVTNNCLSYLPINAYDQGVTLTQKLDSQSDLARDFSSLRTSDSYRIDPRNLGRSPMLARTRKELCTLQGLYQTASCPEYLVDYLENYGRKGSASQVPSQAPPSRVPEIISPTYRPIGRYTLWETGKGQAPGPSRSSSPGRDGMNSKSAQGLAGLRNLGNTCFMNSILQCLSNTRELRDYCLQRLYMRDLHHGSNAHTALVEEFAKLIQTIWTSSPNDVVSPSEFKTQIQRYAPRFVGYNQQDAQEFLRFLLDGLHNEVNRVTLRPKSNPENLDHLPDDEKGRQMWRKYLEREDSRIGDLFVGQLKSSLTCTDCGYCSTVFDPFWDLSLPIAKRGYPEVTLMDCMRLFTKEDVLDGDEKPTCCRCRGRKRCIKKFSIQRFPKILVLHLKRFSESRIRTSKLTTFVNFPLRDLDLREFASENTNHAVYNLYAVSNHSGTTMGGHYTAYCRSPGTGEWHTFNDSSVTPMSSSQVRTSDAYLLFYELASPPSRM

inhibition of BRISC DUB activity [1]: neither were found to inhibit
Molecule: O=C(NC1CCNCC1)c1[nH]ncc1NC(=O)c1c(Cl)cccc1Cl [AT7519, reference compound]

mass photometry counts, 1:1:1:1 complex [2]: 8%
mass photometry counts, dimer [2]: 69%
mass photometry counts, monomer [2]: 14%
specificity for BRISC over ARISC [4]: specifically inhibits BRISC over
specificity for BRISC over ARISC-RAP80 [5]: specifically inhibits BRISC over
inhibition of AMSH-LP [7]: no inhibition
IC50 ([1]; IQF K63-linked diUb substrate, FIG. 1D, read-out: IC50 inhibiting BRISC): 1500 nM
inhibition of BRISC DUB activity [1]: specific inhibition
Molecule: O=C(NC1CCNCC1)c1nn(C(=O)c2c(Cl)cccc2Cl)cc1NC(=O)c1c(Cl)cccc1Cl [JMS-175-2]
dimer formation at increasing inhibitor concentration [3]: dose-dependent increase in dimer formation
BRISC species by native mass spectrometry [6]: BRISC dimers with a MW consistent with a 4:4:4:4 stoichiometry were observed

inhibition of BRISC DUB activity [1]: no inhibition
Molecule: O=C(NC1CCN(C(=O)c2c(Cl)cccc2Cl)CC1)c1n[nH]cc1NC(=O)c1c(Cl)cccc1Cl [AP-5-144]

inhibition of BRISC DUB activity [1]: inhibited
inhibition of USP2 [9]: inhibited
Molecule: Nc1ccc(C(=O)Nc2cccc(-c3nc(N4CCOCC4)c4oc5ncccc5c4n3)c2)cn1 [YM201636]
inhibition of trypsin [8]: inhibited

inhibition in the presence of SHMT2 [10]: reduced inhibition
inhibition in the presence of SHMT2 [11]: reduced inhibition
inhibition in the presence of SHMT2 [12]: reduced inhibition
B1: serine hydroxymethyltransferase (protein)
chain: QLVRMAIRAQHSNAAQTQTGEANRGWTGQESLSDSDPEMWELLQREKDRQCRGLELIASENFCSRAALEALGSCLNNKYSEGYPGKRYYGGAEVVDEIELLCQRRALEAFDLDPAQWGVNVQPYSGSPANLAVYTALLQPHDRIMGLDLPDGGHLTHGYMSDVKRISATSIFFESMPYKLNPKTGLIDYNQLALTARLFRPRLIIAGTSAYARLIDYARMREVCDEVKAHLLADMAHISGLVAAKVIPSPFKHADIVTTTTHKTLRGARSGLIFYRKGVKAVDPKTGREIPYTFEDRINFAVFPSLQGGPHNHAIAAVAVALKQACTPMFREYSLQVLKNARAMADALLERGYSLVSGGTDNHLVLVDLRPKGLDGARAERVLELVSITANKNTCPGDRSAITPGGLRLGAPALTSRQFREDDFRRVVDFIDEGVNIGLEVKSKTAKLQDFKSFLLKDSETSQRLANLRQRVEQFARAFPMPGFDEH
inhibition of BRISC DUB activity [13]: potent inhibitor
